Consider 13 molecules from PubChem BioAssay (NCI).

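Growth conditions: 96-well plates. Treatment: test compound, 48 hours, 5 concentrations. Analysis: linear interpolation between bracketing concentrations; unreached endpoints set to highest concentration. GI50: concentration for 50% inhibition of growth. TGI marks complete inhibition of growth.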

Among the test systems are IGROV1 ovarian; COLO 205 colon; TK-10 renal; SK-MEL-5 melanoma; M14 melanoma; KM12 colon; UO-31 renal; CCRF-CEM leukemia; ACHN renal; NCI-H522 lung.
Common to all, as to assay: inhibition of tumour cell growth, NCI panel, 48 h

As to `Cc1oc2c(cc(O)c3cc(O)ccc32)c2cccc1-2`, the TGI in the experiment on IGROV1 ovarian, in the experiment on COLO 205 colon, in the experiment with TK-10 renal, in the experiment on SK-MEL-5 melanoma, in the experiment on M14 melanoma and with KM12 colon was above 100 µM each time. In addition, the TGI in the experiment with UO-31 renal, in the experiment on CCRF-CEM leukemia, with ACHN renal and with NCI-H522 lung was above 100 µM each time.

As to `COc1ncc(/C=C2\OC(=O)c3ccccc32)c(OC)n1`, the TGI was above 100 µM in the experiment with IGROV1 ovarian; above 100 µM in the experiment with COLO 205 colon; above 100 µM with TK-10 renal; 58.7 µM in the experiment with SK-MEL-5 melanoma; above 100 µM in the experiment on M14 melanoma; above 100 µM with KM12 colon. Also, the TGI in the experiment with UO-31 renal, in the experiment with CCRF-CEM leukemia, with ACHN renal and in the experiment on NCI-H522 lung was above 100 µM throughout.

As for `O=C(NCc1ccccc1)c1n[nH][nH]c1=O`, the TGI with IGROV1 ovarian, with COLO 205 colon, with TK-10 renal, in the experiment on SK-MEL-5 melanoma, in the experiment on M14 melanoma and in the experiment with KM12 colon was above 100 µM throughout. Besides, the TGI with UO-31 renal, with CCRF-CEM leukemia, in the experiment with ACHN renal and in the experiment with NCI-H522 lung was above 100 µM throughout.

Regarding `Cc1ccc(NC(=O)c2ccc(OP(=O)(O)Nc3ccc(C)cc3)cc2)cc1`, the TGI with IGROV1 ovarian, in the experiment on COLO 205 colon, with TK-10 renal, with SK-MEL-5 melanoma, in the experiment on M14 melanoma and in the experiment with KM12 colon was above 100 µM each time. Also, the TGI in the experiment with UO-31 renal, in the experiment on CCRF-CEM leukemia, in the experiment on ACHN renal and in the experiment with NCI-H522 lung was above 100 µM each time.

Regarding `Nc1nc(-c2ccccc2)nc2oc(-c3cccs3)nc12`, the TGI in the experiment with IGROV1 ovarian, in the experiment with COLO 205 colon, in the experiment with TK-10 renal, with SK-MEL-5 melanoma, in the experiment with M14 melanoma and in the experiment on KM12 colon was above 100 µM throughout. Further, the TGI in the experiment with UO-31 renal, in the experiment on CCRF-CEM leukemia, with ACHN renal and in the experiment with NCI-H522 lung was above 100 µM each time.

As to `S=C(N/N=C(/c1ccccc1)c1ccccn1)N(Cc1ccccn1)Cc1ccccn1`, the TGI with IGROV1 ovarian was 2.03 µM; in the experiment on COLO 205 colon it was 2.02 µM; with TK-10 renal, 1.58 µM; in the experiment on SK-MEL-5 melanoma, 3.12 µM; in the experiment with M14 melanoma it was 2.97 µM; in the experiment with KM12 colon, 2.31 µM. Further, the TGI in the experiment with UO-31 renal is 1.65 µM; in the experiment with CCRF-CEM leukemia, above 100 µM; in the experiment on ACHN renal, 0.74 µM; with NCI-H522 lung, 4.5 µM.

For the molecule `Cc1ccc(NC(=O)CC2Sc3ccccc3NC2=O)cc1C` (stereo not given), the TGI in the experiment on IGROV1 ovarian, in the experiment with COLO 205 colon, in the experiment with TK-10 renal, in the experiment with SK-MEL-5 melanoma, in the experiment with M14 melanoma and with KM12 colon was above 100 µM each time. Besides, the TGI with UO-31 renal was above 100 µM; in the experiment on CCRF-CEM leukemia it was 92.3 µM; in the experiment on ACHN renal it was above 100 µM; in the experiment with NCI-H522 lung, above 100 µM.

For the molecule `CCCCOC(=O)Nc1ccc(S(=O)(=O)Nc2ccccc2Cl)cc1`, the TGI worked out at 49 µM in the experiment on IGROV1 ovarian; 45.2 µM with COLO 205 colon; 46.6 µM with TK-10 renal; 24.3 µM in the experiment with SK-MEL-5 melanoma; 37.7 µM with M14 melanoma; 62.9 µM with KM12 colon. For the same molecule, the TGI in the experiment with UO-31 renal came out at 80 µM; with CCRF-CEM leukemia, 57.3 µM; in the experiment on ACHN renal it was 65.8 µM; in the experiment on NCI-H522 lung, 49.3 µM.

On to `O=c1[nH]c(=S)[nH]c2c1C(c1ccc([N+](=O)[O-])cc1)c1c([nH]c(=S)[nH]c1=O)O2`, for which the TGI with IGROV1 ovarian, with COLO 205 colon, in the experiment on TK-10 renal, in the experiment with SK-MEL-5 melanoma, with M14 melanoma and with KM12 colon was above 100 µM each time. Further, the TGI in the experiment on UO-31 renal, in the experiment with CCRF-CEM leukemia, in the experiment on ACHN renal and in the experiment on NCI-H522 lung was above 100 µM each time.

Turning to `N#CC(Cc1ccccc1)N(CCC1=CCCCC1)C(c1ccccc1)c1ccccc1` (stereo not given), the TGI in the experiment on IGROV1 ovarian, in the experiment with COLO 205 colon, in the experiment with TK-10 renal, in the experiment on SK-MEL-5 melanoma, in the experiment with M14 melanoma and in the experiment on KM12 colon was above 100 µM each time. For the same molecule, the TGI with UO-31 renal is above 100 µM; with CCRF-CEM leukemia, above 100 µM; in the experiment on ACHN renal, above 100 µM; with NCI-H522 lung it was 65.9 µM.

Turning to `COc1ccc(CN2C(=O)/C(=C\c3cc(OC)c(OC)c(OC)c3)c3ccccc32)cc1`, the GI50 with IGROV1 ovarian was 1.72 µM; with COLO 205 colon, 1.89 µM; in the experiment on TK-10 renal it was 1.14 µM; in the experiment with SK-MEL-5 melanoma, 2.51 µM; in the experiment on M14 melanoma, 2.41 µM; with KM12 colon, 1.89 µM. Further, the GI50 in the experiment with UO-31 renal is 1.18 µM; in the experiment with CCRF-CEM leukemia it was 1.94 µM; in the experiment with ACHN renal it was 2.06 µM; in the experiment with NCI-H522 lung, 1.58 µM. The TGI turned out to be 4.64 µM in the experiment with IGROV1 ovarian; 3.44 µM in the experiment on COLO 205 colon; 4.33 µM in the experiment with TK-10 renal; 6.63 µM in the experiment on SK-MEL-5 melanoma; 5.48 µM in the experiment with M14 melanoma; 3.57 µM with KM12 colon. Also, the TGI in the experiment with UO-31 renal is 2.91 µM; in the experiment on CCRF-CEM leukemia, above 100 µM; in the experiment on ACHN renal, 4.41 µM; in the experiment on NCI-H522 lung, 3.57 µM.

Turning to `CCCCCC1=CC(=O)C1(Cl)Cl`, the TGI in the experiment on IGROV1 ovarian turned out to be 48 µM; with COLO 205 colon it was 26.7 µM; with TK-10 renal, 20.8 µM; in the experiment with SK-MEL-5 melanoma, 24 µM; with M14 melanoma, 45.6 µM; with KM12 colon, 27.9 µM. Also, the TGI in the experiment with UO-31 renal was 38.2 µM; in the experiment on CCRF-CEM leukemia it was 6.15 µM; in the experiment on ACHN renal, 23.4 µM; in the experiment on NCI-H522 lung it was 15.8 µM.

Consider `N#C/C(=C1/Sc2c(nc[nH]c2=O)N1c1ccccc1)c1nc2ccccc2[nH]1`, for which the TGI with IGROV1 ovarian, in the experiment with COLO 205 colon, with TK-10 renal, in the experiment with SK-MEL-5 melanoma, in the experiment on M14 melanoma and in the experiment with KM12 colon was above 100 µM each time. The TGI with UO-31 renal, with CCRF-CEM leukemia, with ACHN renal and in the experiment on NCI-H522 lung was above 100 µM each time.
